Each block holds one compound with its values, some of them ahead of it. Non-standard residues stand in square brackets, D forms with d. Residues, ends and D or L forms follow the SMILES beside them. *: point of attachment. Cbz = O=C(OCc1ccccc1)*
What was measured:
Cathepsin B [1] = biological target: Cathepsin B (Homo sapiens, UniProt P07858); conditions: cited from earlier work
Cathepsin L [2] = biological target: Cathepsin L (Homo sapiens, UniProt P07711); conditions: cited from earlier work
Cathepsin K [3] = biological target: T1, Cathepsin K (Homo sapiens, UniProt P43235); conditions: cited from earlier work
T1 sequence (P43235 115-329): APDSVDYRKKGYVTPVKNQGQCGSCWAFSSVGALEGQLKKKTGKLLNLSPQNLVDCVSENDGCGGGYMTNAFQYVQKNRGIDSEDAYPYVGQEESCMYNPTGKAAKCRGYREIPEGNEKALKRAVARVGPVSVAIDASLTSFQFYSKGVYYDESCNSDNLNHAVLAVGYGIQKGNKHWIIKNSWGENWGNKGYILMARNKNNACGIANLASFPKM

cathepsin B [4] = biological target: T2, cathepsin B (Mus musculus, UniProt P10605); experiment: Cysteine protease active site labeling in mouse peritoneal macrophages: cathepsin B; type: cell-based
T2 construct: endogenous in cells; host or cells: thioglycolate-elicited mouse peritoneal macrophages
T2 sequence (P10605 80-333 limits assumed): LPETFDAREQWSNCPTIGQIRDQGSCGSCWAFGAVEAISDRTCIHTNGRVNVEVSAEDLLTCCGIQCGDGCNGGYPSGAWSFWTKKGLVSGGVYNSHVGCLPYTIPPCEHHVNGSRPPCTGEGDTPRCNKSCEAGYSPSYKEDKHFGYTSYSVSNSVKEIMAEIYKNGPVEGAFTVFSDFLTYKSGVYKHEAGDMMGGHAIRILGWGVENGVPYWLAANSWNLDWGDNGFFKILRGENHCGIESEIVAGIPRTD
Experimental: (§1) FIG. 1. Cysteine protease inhibition profile by synthetic inhibitors in mouse peritoneal macrophages. [^125I]-Z-Tyr-Ala-CHN2-labeled mouse peritoneal macrophages were lysed and separated onto 12% SDS-PAGE to visualize labeled active cathepsins. Doses and inhibitors used were all indicated.
(§2) Mouse peritoneal macrophages were generated by injecting mice with thioglycolate as described in Shi et al. (2000) J. Exp. Med. 191:[…]. After 3-4 days of incubation, peritoneal microphages were washed out using Tris-EDTA buffers containing 6 mM EDTA (pH 8.0). Cells were then seeded onto 24-well plates in DMEM with 10% FBS till complete spread. After cells were attached to the plates, different doses of inhibitors were added. After 2-3 hours of incubation, cells were labeled with [^125I]-Z-Tyr-Ala-CHN2 overnight at 37° C. to detect intracellular active cysteine proteases. Cells were lysed into 1× reducing protein sample buffer and separated onto 12% SDS-PAGE.
(§3) First, the synthetic small molecule compounds were tested for their selectivity toward different forms of cathepsin. Mouse peritoneal macrophages were cultured in the presence of selective inhibitors and cysteine protease active site labeling probe [^125I]-Z-Tyr-Ala-CHN2 (Sukhova et al., supra). […] In contrast, other inhibitors used had no effect on cathepsin B activity. […] Therefore, these inhibitors can be utilized to test if the aforementioned cathepsins play roles in the breakdown of insulin receptor (IR) or IR turnover.

cathepsin L [5] = biological target: T3, cathepsin L (Mus musculus, UniProt P06797); experiment: Cysteine protease active site labeling in mouse peritoneal macrophages: cathepsin L; type: cell-based
T3 construct: endogenous in cells; host or cells: thioglycolate-elicited mouse peritoneal macrophages
T3 sequence (P06797 114-334): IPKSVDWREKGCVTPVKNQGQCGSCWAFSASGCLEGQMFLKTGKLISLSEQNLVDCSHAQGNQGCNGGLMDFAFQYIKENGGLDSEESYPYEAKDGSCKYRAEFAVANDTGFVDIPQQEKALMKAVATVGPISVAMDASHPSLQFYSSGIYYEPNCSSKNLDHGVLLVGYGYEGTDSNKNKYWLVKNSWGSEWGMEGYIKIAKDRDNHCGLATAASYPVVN
Experimental: as §1, §2, §3

cathepsin K [6] = biological target: T4, cathepsin K (Mus musculus, UniProt P55097); experiment: Cysteine protease active site labeling in mouse peritoneal macrophages: cathepsin K; type: cell-based
T4 construct: endogenous in cells; host or cells: thioglycolate-elicited mouse peritoneal macrophages
T4 sequence (P55097 115-329): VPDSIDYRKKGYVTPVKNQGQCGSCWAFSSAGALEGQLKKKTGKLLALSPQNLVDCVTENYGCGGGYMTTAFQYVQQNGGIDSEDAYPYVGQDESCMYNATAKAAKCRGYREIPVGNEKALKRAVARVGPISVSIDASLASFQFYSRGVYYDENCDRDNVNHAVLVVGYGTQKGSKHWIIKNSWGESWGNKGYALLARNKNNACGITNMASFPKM
Experimental: as §1, §2, §3

[7] = test system: insulin receptor β subunit; experiment: Insulin receptor turnover in human preadipocytes, Western blot; type: cell-based; conditions: for IR turnover: human preadipocytes induced to adipocytes
Experimental: FIG. 2. […] Human preadipocytes were incubated with and without inhibitors indicated at different doses, lysed, separated onto 7% SDS-PAGE, and probed with goat anti-human insulin receptor β-subunit polyclonal antibodies. Both mature β subunit and its precursor were indicated.
(§4) Human preadipocytes were initially cultured in MSCGM medium (BioWhitaker) at 37° C. and 5% CO2 for 7 to 12 days with 3-4 changes of media till complete confluence. Non-induced cells were kept in adipogenesis maintenance media containing 0.01 mg/ml of insulin, 0.05 units/ml of penicillin, 0.05 μg/ml of streptomycin, and 10% fetal bovine serum. To induce adipogenesis, complete confluent cells were cultured in adipogenesis induction medium containing 1 μM dexamethasone, 0.2 mM indomethacin, 0.01 mg/ml insulin, 0.5 mM 3-isobutyl-1-methyl-xanthine, 0.05 units/ml of penicillin, 0.05 μg/ml of streptomycin, and 10% fetal bovine serum in the presence and absence of protease inhibitors for 3 days followed by three days of culture in maintenance media. After three cycles of induction and maintenance, cells were cultured in maintenance media for additional 7 days with two changes of fresh media.
(§5) After differentiation, cells were collected, and lysed into 1×RIPA buffer. Protein concentrations were determined using Bio-Rad Dc protein assay system according to the manufacturer (Bio-Rad, Hercules, Calif.). Equal amount of proteins were separated on 7% SDS-PAGE for detecting IR and IGF-1R, 12% SDS-PAGE for detecting cathepsins S, K, and L antigens. Both IR and IGF-1R primary polyclonal antibodies were raised from goat and all cathepsin antibodies were polyclonal antibodies raised from rabbit. The corresponding HRP-conjugated secondary antibodies were used for detections.
To test which cathepsin is involved in the IR turnover, human preadipocytes (BioWhittaker, Walkersville, Md.) were induced to become adipocytes in the presence and absence of inhibitors. Differentiated adipocytes expressed more IR than controls as previously reported. Pederson et al. (2000) Biochem. Biophys. Res. Commun. 276:162-168. Cathepsin B inhibitor (CA 074, 10 μM) and catepsin S inhibitor (CLIK 060, 2 μM) had no effect on either IR turnover or differentiation (FIGS. 2). […] The same is true when the blot was tested with insulin like growth factor I receptor (IGF-IR) antibodies (FIG. 3).

[8] = test system: insulin like growth factor I receptor (IGF-IR); experiment: IGF-IR levels in human preadipocytes, Western blot; type: cell-based
Experimental: FIG. 3. […] Cells were treated as in FIG. 2. Western blot analysis was performed using goat anti-human IGF-1R polyclonal antibodies.
as §4, §5
To test which cathepsin is involved in the IR turnover, human preadipocytes (BioWhittaker, Walkersville, Md.) were induced to become adipocytes in the presence and absence of inhibitors. Differentiated adipocytes expressed more IR than controls as previously reported. Pederson et al. (2000) Biochem. Biophys. Res. Commun. 276:162-168. Cathepsin B inhibitor (CA 074, 10 μM) and catepsin S inhibitor (CLIK 060, 2 μM) had no effect on either IR turnover or differentiation (FIGS. 2). […]

[9] = test system: CCAAT/enhancer-binding protein-α (C/EBP-α); experiment: C/EBP-α levels in human preadipocytes, Western blot; type: cell-based; conditions: human preadipocytes differentiated with inhibitor, FIG. 4
Experimental: FIG. 4. Inhibition of cathepsin L blocked the expression of CCAAT/enhancer-binding protein. Human preadipocytes were differentiated as in FIG. 2. A 10% gel was used to perform Western blot analysis using goat anti-human C/EBP-α polyclonal antibodies and the blot was detected using the corresponding HRP-conjugated secondary antibodies.
as §4
(§6) To evaluate the cell differentiation levels affected by aforementioned inhibitors, the levels of transcription factors CCAAT/enhancer-binding protein-α (C/EBP-α) as well as peroxisome proliferator-activated receptor-γ (PPAR-γ) from cells treated with and without inhibitors were measured. Both C/EBP-α and PPAR-γ are important adipocyte determination factors. Wu et al. (1999) Mol. Cell. 3:151-158; Tanaka et al. (1997) EMBO J. 16:7432-7443; and Tontonoz et al. (1994) Cell 79:1147-1156.

[10] = test system: peroxisome proliferator-activated receptor-γ (PPAR-γ); experiment: PPAR-γ levels in human preadipocytes, Western blot; type: cell-based; conditions: human preadipocytes differentiated with inhibitor, FIG. 5
Experimental: FIG. 5. Inhibition of cathepsin L blocked the expression of PPAR-γ. Human preadipocytes were used and Western blot analysis was performed as in FIG. 4 instead of using mouse anti-human PPAR-γ monoclonal antibodies as the primary antibodies.
as §4, §6

human preadipocytes = experiment: Human preadipocyte adipogenesis, oil-red staining; type: cell-based; conditions: for inhibition of adipogenesis / differentiation: 10 μM; for inhibition of adipogenesis / differentiation / effect on adipogenesis: human preadipocytes
Experimental: FIG. 6. Oil-red staining of human preadipocytes and adipocytes.
as §4
This hypothesis is further confirmed by oil-red staining of CLIK 148 or 195 treated preadipocytes (FIG. 6). In addition, inhibition of adiogenesis by these two inhibitors is dose dependent. Less than 50% of adipogenesis was blocked by 1 μM of such inhibitors. […] In contrast, 1 μM of CLIK 060, 1 or 10 μM of CA 074 had no effect on adipogenesis (data not shown). Therefore, these observations indicate that cathepsin L appears to play a more critical role than cathepsins S and K in adipogenesis by controlling insulin/IR complex turnover.

cathepsin S = cathepsin S (Mus musculus, UniProt O70370); experiment: Cysteine protease active site labeling in mouse peritoneal macrophages: cathepsin S; type: cell-based; set-up: endogenous in cells; host or cells: thioglycolate-elicited mouse peritoneal macrophages
Experimental: as §1, §2
First, the synthetic small molecule compounds were tested for their selectivity toward different forms of cathepsin. Mouse peritoneal macrophages were cultured in the presence of selective inhibitors and cysteine protease active site labeling probe [^125I]-Z-Tyr-Ala-CHN2 (Sukhova et al., supra). […] In contrast, other inhibitors used had no effect on cathepsin B activity. […]

Chain of Cathepsin L (P07711 114-333, species assumed): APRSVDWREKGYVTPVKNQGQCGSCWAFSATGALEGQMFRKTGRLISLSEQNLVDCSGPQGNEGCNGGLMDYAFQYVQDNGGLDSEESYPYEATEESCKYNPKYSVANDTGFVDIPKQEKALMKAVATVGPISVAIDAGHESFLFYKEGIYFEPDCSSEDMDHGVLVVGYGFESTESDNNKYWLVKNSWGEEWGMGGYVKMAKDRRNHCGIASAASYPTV

Structure (SMILES): CC(C)CC(NC(=O)[C@H](CC(C)C)NC(=O)OCc1ccccc1)C(=O)COCc1ccc(-c2ccccc2)cc1 (some centres unmarked)
Ki (Cathepsin B [1]): 1310 nM | Ki (Cathepsin L [2]): 63 nM | Ki (Cathepsin K [3]): 22 nM

Structure (SMILES): O=C(N[C@@H](Cc1ccc2ccccc2c1)C(=O)N[C@H]1CCCN(S(=O)(=O)c2ccccn2)CC1=O)c1cccc2cccnc12
Ki (Cathepsin K [3]): 420 to 503 nM

Structure (SMILES): O=C(N[C@@H](Cc1ccc2ccccc2c1)C(=O)N[C@H]1CCCN(S(=O)(=O)c2ccccn2)CC1=O)c1cccc2ccccc12
Ki (Cathepsin K [3]): 420 to 503 nM

Structure (SMILES): O=C[C@@H](Cc1ccc(O)cc1)NC(=O)[C@H](Cc1ccccc1)NC(=O)OCc1ccccc1 (Cbz-Phe-[dY]-aldehyde)
Cathepsin L selectivity, in words (Cathepsin L [2]): Cathepsin L. Selective (Woo et al. Bioorg. Med. Chem. 5, 1501, 1995)

cathepsin B activity (active site labeling) (cathepsin B [4]; 10 μM): not | cathepsin L activity (active site labeling) (cathepsin L [5]; 10 μM, mouse peritoneal macrophages): completely inhibited | cathepsin K activity (active site labeling) (cathepsin K [6]; 10 μM): not
Structure (SMILES): CN(C)C(=O)[C@H](Cc1ccccc1)NC(=O)[C@H]1O[C@@H]1C(=O)N[C@@H](Cc1ccccc1)C(=O)N(C)C (relative stereo) [CLIK 195, L-(+)-(2S, 3S)-Bis-(Na-amino-L-phenylalaninedimethylamide)-trans-epoxysuccinamide]
levels of 95 kDa IR β subunit and its precursor ([7]; 10 μM, human preadipocytes): increased levels | levels of IGF-IR β subunit and its precursor (the same as for IR) ([8]; 10 μM): increased levels | accumulation of 50 kDa C/EBP-α [9]: blocking the accumulation | accumulation of 50 kDa PPAR-γ [10]: blocking the accumulation | inhibition of adipogenesis / differentiation (human preadipocytes): complete inhibition | inhibition of adipogenesis / differentiation (human preadipocytes; listed as 195): completely blocked

cathepsin L activity (active site labeling) (cathepsin L [5]; 2-10 μM, mouse peritoneal macrophages): affected at some level | cathepsin L activity (active site labeling) (cathepsin L [5]; 10-15 μM, FIG. 1): blocked | cathepsin S activity (active site labeling) (cathepsin S; 2-10 μM): significantly inhibited
Structure (SMILES): CN(C)C(=O)[C@H](Cc1ccccc1)NC(=O)C1OC1C(=O)NC(CCCCN)C(=O)Nc1ccccc1.Cl (stereo in doubt) [CLIK 060, N-{L-3-trans[(1-phenylcarbamoyl-5-amino)pentylcarbamoyl]oxirane-2-carbonyl}-L-phenylalaninoldimethylamide hydrochloride]
IR turnover ([7]; 2 μM): no effect | IR accumulation ([7]; 10-15 μM, human preadipocytes): IR accumulation | effect on adipogenesis (human preadipocytes; 1 μM): no effect | differentiation of human preadipocytes (human preadipocytes; 2 μM): no effect | effect on adipogenesis (human preadipocytes; 10-15 μM (higher concentrations)): adipogenesis inhibition

cathepsin B activity (active site labeling) (cathepsin B [4]; 2 μM): completely blocked | cathepsin L activity (active site labeling) (cathepsin L [5]; 2 μM, mouse peritoneal macrophages): remain intact | cathepsin K activity (active site labeling) (cathepsin K [6]; 2 μM): remain intact | cathepsin S activity (active site labeling) (cathepsin S; 2 μM): remain intact
Structure (SMILES): CCCNC(=O)[C@H]1O[C@@H]1C(=O)N[C@H](C(=O)N1CCC[C@H]1C(=O)O)[C@@H](C)CC [CA 074]
IR turnover ([7]; 10 μM): no effect | effect on adipogenesis (human preadipocytes; 1 μM): no effect | inhibition of adipogenesis / differentiation (human preadipocytes): no effect | effect on adipogenesis (human preadipocytes; 10-20 μM): no effect

Structure (SMILES): CCOC(=O)[C@H]1O[C@@H]1C(=O)N[C@@H](CC(C)C)C(=O)NCCC(C)C [E64d]
levels of 95 kDa IR β subunit and its precursor ([7]; 20 μM, human preadipocytes): increased levels | levels of IGF-IR β subunit and its precursor (the same as for IR) ([8]; 20 μM): increased levels | accumulation of 50 kDa C/EBP-α [9]: blocking the accumulation | accumulation of 50 kDa PPAR-γ [10]: blocking the accumulation

From patent US6620844B2, “Method for reducing blood insulin levels by reducing in vivo cathepsin L activity” (NewMillennium Pharmaceutical, Inc., priority 2001, dated 2003)
